Results taken from US6916773B2, “Non-surfactant solubilizing agent” (Ecolab, Inc., priority 2002, dated 2005).

What was measured:
Type in all cases: physicochemical
Conditions in all cases: room temperature
[1] = Sodium benzoate added to aqueous solvent solution until single phase observed (PPh)
Method: (§1) Aqueous solutions of dipropylene glycol n-butyl ether(DPnB), propylene glycol phenyl ether(PPh), and benzyl alcohol were prepared and sodium benzoate was added at room temperature to each solution until a single phase solution was observed.

[2] = Sodium benzoate added to aqueous solvent solution until single phase observed (benzyl alcohol)
Method: as §1

[3] = Sodium benzoate added to aqueous solvent solution until single phase observed (DPnB)
Method: as §1

## O=C([O-])c1ccccc1.[Na+] [Na Benzoate, sodium benzoate]
[1]; Water 43 wt %, PPh 43 wt %
  Na Benzoate at which a single phase solution was observed: 14 wt %
[1]; Water 58 wt %, PPh 25 wt %
  Na Benzoate at which a single phase solution was observed: 17 wt %
[1]; Water 63 wt %, PPh 16 wt %
  Na Benzoate at which a single phase solution was observed: 21 wt %
[1]; Water 69 wt %, PPh 12 wt %
  Na Benzoate at which a single phase solution was observed: 19 wt %
[1]; Water 74 wt %, PPh 8 wt %
  Na Benzoate at which a single phase solution was observed: 18 wt %
[1]; Water 79 wt %, PPh 4 wt %
  Na Benzoate at which a single phase solution was observed: 17 wt %
[1]; Water 83 wt %, PPh 2 wt %
  Na Benzoate at which a single phase solution was observed: 15 wt %
[1]; Water 93 wt %, PPh 1 wt %
  Na Benzoate at which a single phase solution was observed: 6 wt %
[2]; Water 44 wt %, Benzyl Alcohol 44 wt %
  Na Benzoate at which a single phase solution was observed: 12 wt %
[2]; Water 61 wt %, Benzyl Alcohol 26 wt %
  Na Benzoate at which a single phase solution was observed: 13 wt %
[2]; Water 69 wt %, Benzyl Alcohol 17 wt %
  Na Benzoate at which a single phase solution was observed: 14 wt %
[2]; Water 74 wt %, Benzyl Alcohol 13 wt %
  Na Benzoate at which a single phase solution was observed: 13 wt %
[2]; Water 78 wt %, Benzyl Alcohol 9 wt %
  Na Benzoate at which a single phase solution was observed: 13 wt %
[2]; Water 85 wt %, Benzyl Alcohol 4 wt %
  Na Benzoate at which a single phase solution was observed: 11 wt %
[2]; Water 98 wt %, Benzyl Alcohol 2 wt %
  Na Benzoate at which a single phase solution was observed: 0 wt %
[2]; Water 99 wt %, Benzyl Alcohol 1 wt %
  Na Benzoate at which a single phase solution was observed: 0 wt %
[3]; Water 45 wt %, DPnB 45 wt %
  Na Benzoate at which a single phase solution was observed: 10 wt %
[3]; Water 62 wt %, DPnB 26 wt %
  Na Benzoate at which a single phase solution was observed: 12 wt %
[3]; Water 70 wt %, DPnB 18 wt %
  Na Benzoate at which a single phase solution was observed: 12 wt %
[3]; Water 75 wt %, DPnB 13 wt %
  Na Benzoate at which a single phase solution was observed: 12 wt %
[3]; Water 79 wt %, DPnB 9 wt %
  Na Benzoate at which a single phase solution was observed: 12 wt %
[3]; Water 86 wt %, DPnB 4 wt %
  Na Benzoate at which a single phase solution was observed: 10 wt %
[3]; Water 98 wt %, DPnB 2 wt %
  Na Benzoate at which a single phase solution was observed: 0 wt %
[3]; Water 99 wt %, DPnB 1 wt %
  Na Benzoate at which a single phase solution was observed: 0 wt %
